From patent publication US11713335B2, “Aminocoumarin compounds and methods of their use” (President and Fellows of Harvard College, priority 2018, dated 2023)
In brackets after ≈: the same amount, converted by molar mass. Where two headings read alike, the source gives them in different places.

How the values were obtained:
WT E. coli = test: Minimal inhibitory concentration in wild-type E. coli; type: cell-based, Escherichia coli; conditions: wild-type E. coli, 37° C., 16 hours, read-out: MIC (μM) in WT E. coli
Method: General Procedure for Determination of Minimal Inhibitory Concentrations
Overnight cultures (5 mL) of bacterial strains were grown in LB media or TSA media (for S. aureus) at 37° C. and with shaking at 220 rpm until saturation. The overnight culture was diluted serially 1:100 (50 μL in 5 mL sterile media) and then 1:100 (250 μL in 25 mL sterile media). The 25 mL of diluted culture was then dispensed to a sterile 96 well plate (Corning #3370). 198 μL of culture were dispensed into row A and 100 μL of this culture were dispensed into rows B-H. Aminocoumarin compound (DMSO stock) were added to the first row and then the row was mixed by pipetting. 100 μL of culture from row A were transferred to row B and the serial dilution continued until the final 100 μL from row H were discarded. The plate was incubated without shaking in a 37° C. for 16 hours and then read by visible light spectrophotometer (Molecular Devices) at 600 nm. The minimal inhibitory concentration (MIC) was determined as the lowest concentration of compound concentration that inhibited the growth of bacteria.

S. aureus RN4220 = test: Minimal inhibitory concentration, S. aureus RN4220; type: cell-based; conditions: 16 hour minimal inhibitory concentration at 37° C., read-out: MIC (μM) S. aureus RN4220
In short: (§1)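 MIC, in µM, taken as the lowest compound concentration preventing growth by OD600 after 16 h static incubation at 37 °C. Compound was twofold serially diluted in bacteria grown overnight in LB, or TSA for S. aureus, and diluted 1:100 twice.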

S. aureus MW2 = test: Minimal inhibitory concentration, S. aureus MW2; type: cell-based; conditions: 16 hour minimal inhibitory concentration at 37° C., read-out: MIC (μM) S. aureus MW2 (MRSA)
In short: as §1

E. cloacae 13047 = test: Minimal inhibitory concentration, E. cloacae 13047; type: cell-based; conditions: 16 hour minimal inhibitory concentration at 37° C., read-out: MIC (μM) E. cloacae 13047
In short: as §1

A. baumannii 19606 = test: Minimal inhibitory concentration, A. baumannii 19606; type: cell-based; conditions: 16 hour minimal inhibitory concentration at 37° C., read-out: MIC (μM) A. baumannii 19606
In short: as §1

K. pneumoniae 700721 = test: Minimal inhibitory concentration, K. pneumoniae 700721; type: cell-based; conditions: 16 hour minimal inhibitory concentration at 37° C., read-out: MIC (μM) K. pneumoniae 700721
In short: as §1

E. coli MC4100 = test: Minimal inhibitory concentration, E. coli MC4100; type: cell-based; conditions: 16 hour minimal inhibitory concentration at 37° C., read-out: MIC (μM) E. coli MC4100 ara+
In short: as §1

E. coli 25922 = test: Minimal inhibitory concentration, E. coli 25922; type: cell-based; conditions: 16 hour minimal inhibitory concentration at 37° C., read-out: MIC (μM) E. coli 25922
In short: as §1

[1] = Staphylococcus aureus, RN4220, 16 h
[2] = Staphylococcus aureus, MRSA, 16 h
[3] = Acinetobacter baumannii, 19606, 16 h

Structure (SMILES) | MIC (WT E. coli) [µM] | MIC (S. aureus RN4220) [µM] | MIC (S. aureus MW2) [µM] | MIC (E. cloacae 13047) [µM] | MIC (A. baumannii 19606) [µM] | MIC (K. pneumoniae 700721) [µM] | MIC (E. coli MC4100) [µM] | MIC (E. coli 25922) [µM] | MIC (WT E. coli; Escherichia coli) [µM] | MIC (S. aureus RN4220; [1]) [µM] | MIC (S. aureus MW2; [2]) [µM] | MIC (E. cloacae 13047; Enterobacter cloacae, 13047) [µM] | MIC (A. baumannii 19606; [3]) [µM] | MIC (K. pneumoniae 700721; Klebsiella pneumoniae, 700721) [µM] | MIC (E. coli MC4100; Escherichia coli, MC4100, 16 h) [µM] | MIC (E. coli 25922; Escherichia coli, 25922, 16 h) [µM]
CO[C@@H]1[C@@H](OC(N)=O)[C@@H](O)[C@H](Oc2ccc3c(O)c(NC(=O)c4cc(-c5ccc(F)cc5)c(O)cc4O)c(=O)oc3c2C)OC1(C)C [Compound 84] | 8 (≈ 5.24 µg/mL) | 5 (≈ 3.27 µg/mL) | 5 (≈ 3.27 µg/mL) | 81 (≈ 53 µg/mL) | >50 | 40 (≈ 26.2 µg/mL) | 8 (≈ 5.24 µg/mL) | 10 (≈ 6.55 µg/mL) |  |  |  |  |  |  |  | 
CO[C@@H]1[C@@H](OC(N)=O)[C@@H](O)[C@H](Oc2ccc3c(O)c(NC(=O)c4cccc(-c5ccc(C(F)(F)F)cc5)c4)c(=O)oc3c2C)OC1(C)C [Compound 55] | >300 | 1.49 (≈ 1 µg/mL) | 0.93 (≈ 0.626 µg/mL) | >100 | 37 (≈ 24.9 µg/mL) | >100 | >200 | >200 |  |  |  |  |  |  |  | 
CO[C@@H]1[C@@H](OC(N)=O)[C@@H](O)[C@H](Oc2ccc3c(O)c(NC(=O)c4ccc(CCc5ccccc5)cc4)c(=O)oc3c2C)OC1(C)C [Compound 77] | 40 (≈ 25.3 µg/mL) | 10 (≈ 6.33 µg/mL) | 5 (≈ 3.16 µg/mL) | >100 | >50 | >100 | 40 (≈ 25.3 µg/mL) | 40 (≈ 25.3 µg/mL) |  |  |  |  |  |  |  | 
CO[C@@H]1[C@@H](OC(N)=O)[C@@H](O)[C@H](Oc2ccc3c(O)c(NC(=O)c4cccc(-c5ccccc5C(F)(F)F)c4)c(=O)oc3c2C)OC1(C)C [Compound 60] | >300 | 9 (≈ 6.05 µg/mL) | 5 (≈ 3.36 µg/mL) | >100 | >50 | >100 | >200 | >200 |  |  |  |  |  |  |  | 
CO[C@@H]1[C@@H](OC(N)=O)[C@@H](O)[C@H](Oc2ccc3c(O)c(NC(=O)c4cccc(-c5ccccc5C)c4)c(=O)oc3c2C)OC1(C)C [Compound 47] |  |  |  |  |  |  |  |  | 26 (≈ 16.1 µg/mL) | 20 (≈ 12.4 µg/mL) | 10 (≈ 6.19 µg/mL) | > 100 | > 50 | > 100 | 26 (≈ 16.1 µg/mL) | 40 (≈ 24.7 µg/mL)
CO[C@@H]1[C@@H](OC(N)=O)[C@@H](O)[C@H](Oc2ccc3c(O)c(NC(=O)c4cccc(-c5ccncc5)c4)c(=O)oc3c2C)OC1(C)C [Compound 32] |  |  |  |  |  |  |  |  | > 300 | 83 (≈ 50.3 µg/mL) | 41 (≈ 24.8 µg/mL) | > 100 | > 50 | > 100 | > 200 | > 200
CO[C@@H]1[C@@H](OC(N)=O)[C@@H](O)[C@H](Oc2ccc3c(O)c(NC(=O)c4cccc(-c5ccc(I)cc5)c4)c(=O)oc3c2C)OC1(C)C [Compound 34] |  |  |  |  |  |  |  |  | 59 (≈ 43.1 µg/mL) | 0.43 (≈ 0.314 µg/mL) | 0.43 (≈ 0.314 µg/mL) | > 100 | 9 (≈ 6.57 µg/mL) | > 100 | 59 (≈ 43.1 µg/mL) | 68 (≈ 49.7 µg/mL)
CO[C@@H]1[C@@H](OC(N)=O)[C@@H](O)[C@H](Oc2ccc3c(O)c(NC(=O)c4ccc(-c5ccccc5)cc4)c(=O)oc3c2C)OC1(C)C [Compound 2] |  |  |  |  |  |  |  |  | > 300 | 21 (≈ 12.7 µg/mL) | 21 (≈ 12.7 µg/mL) | > 100 | > 50 | > 100 | > 200 | > 200
COc1cccc(OC)c1C(=O)Nc1c(O)c2ccc(O[C@@H]3OC(C)(C)[C@H](OC)[C@@H](OC(N)=O)[C@H]3O)c(C)c2oc1=O [Compound 10] |  |  |  |  |  |  |  |  | > 300 | > 100 | 85 (≈ 50 µg/mL) | > 100 | > 50 | > 100 | > 200 | > 200
CO[C@@H]1[C@@H](OC(N)=O)[C@@H](O)[C@H](Oc2ccc3c(O)c(NC(=O)c4cccc(-c5cccc(C)c5)c4)c(=O)oc3c2C)OC1(C)C [Compound 51] |  |  |  |  |  |  |  |  | 26 (≈ 16.1 µg/mL) | 1.62 (≈ 1 µg/mL) | 1 (≈ 0.619 µg/mL) | > 100 | 40 (≈ 24.7 µg/mL) | > 100 | 26 (≈ 16.1 µg/mL) | 81 (≈ 50.1 µg/mL)
CO[C@@H]1[C@@H](OC(N)=O)[C@@H](O)[C@H](Oc2ccc3c(O)c(NC(=O)c4cccc(-c5cccnc5)c4)c(=O)oc3c2C)OC1(C)C [Compound 29] |  |  |  |  |  |  |  |  | > 300 | 83 (≈ 50.3 µg/mL) | 83 (≈ 50.3 µg/mL) | > 100 | > 50 | > 100 | > 200 | > 200
CO[C@@H]1[C@@H](OC(N)=O)[C@@H](O)[C@H](Oc2ccc3c(O)c(NC(=O)c4cccc(-c5ccccc5F)c4)c(=O)oc3c2C)OC1(C)C [Compound 37] |  |  |  |  |  |  |  |  | 59 (≈ 36.7 µg/mL) | 10 (≈ 6.23 µg/mL) | 10 (≈ 6.23 µg/mL) | > 100 | > 50 | > 100 | 59 (≈ 36.7 µg/mL) | 80 (≈ 49.8 µg/mL)
CO[C@@H]1[C@@H](OC(N)=O)[C@@H](O)[C@H](Oc2ccc3c(O)c(NC(=O)c4cccc(-c5cccc(F)c5)c4)c(=O)oc3c2C)OC1(C)C [Compound 38] |  |  |  |  |  |  |  |  | 26 (≈ 16.2 µg/mL) | 5 (≈ 3.11 µg/mL) | 10 (≈ 6.23 µg/mL) | > 100 | > 50 | > 100 | 26 (≈ 16.2 µg/mL) | 40 (≈ 24.9 µg/mL)
CO[C@@H]1[C@@H](OC(N)=O)[C@@H](O)[C@H](Oc2ccc3c(O)c(NC(=O)c4cc(N)cc(-c5ccccc5)c4)c(=O)oc3c2C)OC1(C)C [Compound 89] | 59 (≈ 36.6 µg/mL) | 20 (≈ 12.4 µg/mL) | 10 (≈ 6.2 µg/mL) | >100 | >50 | >100 | 59 (≈ 36.6 µg/mL) | 81 (≈ 50.2 µg/mL) |  |  |  |  |  |  |  | 
CO[C@@H]1[C@@H](OC(N)=O)[C@@H](O)[C@H](Oc2ccc3c(O)c(NC(=O)c4ccc(O)c(-c5ccc6ccccc6c5)c4)c(=O)oc3c2C)OC1(C)C [Compound 92] | 150 (≈ 101 µg/mL) | 0.09 (≈ 0.0604 µg/mL) | 0.09 (≈ 0.0604 µg/mL) | >100 | 1.16 (≈ 0.778 µg/mL) | >100 | 150 (≈ 101 µg/mL) | >200 |  |  |  |  |  |  |  | 
